Earlier results as cited in patent publication US4756118A, “Method and apparatus for the destruction of imported fire ants of the genus Solenopsis” (priority 1986, dated 1988).

Legend:
[1] = test system: Imported Fire Ant; settings: poison bait
[2] = relative to pyrethrum

Compound | effectiveness in Imported Fire Ant control [1] | Acute Oral LD50 | times more effective than pyrethrum [2] [times]
CC1(C)CNC(=NN=C(C=Cc2ccc(C(F)(F)F)cc2)C=Cc2ccc(C(F)(F)F)cc2)NC1 [Amdro] | very limited in its effectiveness |  | 
ClC1(Cl)C2(Cl)C3(Cl)C4(Cl)C(Cl)(Cl)C5(Cl)C3(Cl)C1(Cl)C5(Cl)C24Cl (centres unmarked) [Mirex, dodecachloroocta-hydro-1,3,4-metheno-2H-cyclobuta(cd)pentalene] | most effective chemical control agent | 306 mg/kg | 
CC(C)=CC1C(C(=O)OCc2coc(Cc3ccccc3)c2)C1(C)C (centres unmarked) [Resmethrin, [5-(phenylmethyl)-3-furanyl]methyl 2,2-dimethyl-3-(2-methyl-1-propenyl)cyclopropanecarboxylate] |  | 4,420 mg./kg. | ~20
